One test has as its target T1, Wee1 kinase domain (Homo sapiens, UniProt P30291).
T1 construct: Wee1 kinase domain was purchased from Carna (catalog #05-177); purchased Carna 05-177
Nature of the test: Wee1 Kinase Biochemical Assay (ADP-Glo). To be noted: 1 nM Wee1 enzyme, 15 uM ATP, 4 hours at 25° C. The essentials:
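Carna Wee1 kinase domain at 1 nM, with 15 uM ATP and 2 ng/mL poly(Lys,Tyr 4:1) substrate in 40 mM Tris-HCl, 20 mM MgCl2, 0.1 mg/mL BSA, 2 mM DTT, run 4 h at 25° C. ADP formation read by ADP-Glo luminescence. Percent inhibition normalised to DMSO and saturating-inhibitor controls.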
Background: ADP-Glo first removes unused ATP, then detects ADP through luciferase.
T1 sequence (P30291 299-569 limits assumed): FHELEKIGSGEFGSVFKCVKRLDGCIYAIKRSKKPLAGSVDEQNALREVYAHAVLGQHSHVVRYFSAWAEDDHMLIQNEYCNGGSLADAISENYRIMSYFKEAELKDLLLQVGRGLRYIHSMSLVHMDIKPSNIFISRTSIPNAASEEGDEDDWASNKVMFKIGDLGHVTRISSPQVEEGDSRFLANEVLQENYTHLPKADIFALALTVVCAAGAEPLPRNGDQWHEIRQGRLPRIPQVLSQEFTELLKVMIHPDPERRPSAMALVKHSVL
A word on the IC50: it is the concentration that inhibits the measured activity by half. Read a high IC50 as weaker potency in that assay. `CN1C[C@@H]2C[C@H]1CN2c1ccc(Nc2ncc3c(n2)N(c2cccc(C(F)F)n2)[C@@H]2CC(C)(C)OC[C@]32C)cc1` [Example 813, (4bR,8aR)-9-(6-(difluoromethyl)pyridin-2-yl)-4b,7,7-trimethyl-N-(4-((1S,4S)-5-methyl-2,5-diazabicyclo[2.2.1]heptan-2-yl)phenyl)-4b,5,7,8,8a,9-hexahydropyrano[3′,4′:4,5]pyrrolo[2,3-d]pyrimidin-2-amine] registered an IC50 of less than 10 nM.

The test is the same for the next values; noted with them: Wee1 kinase domain, 15 uM ATP, ADP-Glo.
`C[C@H]1COC(=O)N1c1cccc(N2c3nc(Nc4ccc(N5C[C@@H]6C[C@H]5CN6C)cc4)ncc3[C@]3(C)COC(C)(C)C[C@H]23)n1` (single isomer, unassigned) [Example 244] registered an IC50 of 10 to 100 nM.

With `CNCc1cccc(N2c3nc(Nc4ccc([C@@H]5CCOC5)cc4)ncc3[C@]3(C)COC(C)(C)C[C@H]23)n1` (single isomer, unassigned) [Example 37], the IC50 lay in the range of 100 to 1000 nM.

In the case of `C[C@H]1COC(=O)N1c1cccc(N2c3nc(Nc4ccc([C@]5(C)CCN(C)C5)cc4)ncc3[C@]3(C)COC(C)(C)C[C@H]23)n1` (single isomer, unassigned) [Example 350], the IC50 lay within 10 to 100 nM.

`Cc1cc(Nc2ncc3c(n2)N(c2cccc(N=S(C)(C)=O)n2)[C@H]2CC(C)(C)OC[C@@]32C)ccc1[C@H]1CCNC1` (single isomer, unassigned) [Example 150] gave an IC50 of 10 to 100 nM.

`C[C@H]1COC(=O)N1c1cccc(N2c3nc(Nc4ccc([C@@H]5CCNC5)nc4)ncc3[C@]3(C)COC(C)(C)C[C@H]23)n1` (single isomer, unassigned) [Example 256] returned an IC50 of 10 to 100 nM.

Take `CNCc1cccc(N2c3nc(Nc4ccc(C(=O)N5CCOCC5)cc4)ncc3[C@]3(C)COC(C)(C)C[C@H]23)n1` (single isomer, unassigned) [Example 23]: the IC50 is 100 to 1000 nM.

In turn, `Cc1cc(Nc2ncc3c(n2)N(c2cccc(N=S(C)(C)=O)n2)[C@H]2CC(C)(C)OC[C@@]32C)ccc1[C@H]1CCN(C)C1` (single isomer, unassigned) [Example 148] came in with a concentration for half-maximal inhibition (IC50) of 10 to 100 nM.

Regarding `Cc1cc(Nc2ncc3c(n2)N(c2cccc(N4C(=O)OC[C@@H]4C)n2)[C@H]2CC(C)(C)OC[C@@]32C)ccc1O[C@@H]1CCNC1` (single isomer, unassigned) [Example 336], the IC50 lay within 10 to 100 nM.

As for `C[C@H]1COC(=O)N1c1cccc(N2c3nc(Nc4ccc(N5C[C@H]6C[C@@H]5CN6)cc4)ncc3[C@]3(C)COC(C)(C)C[C@H]23)n1` (single isomer, unassigned) [Example 276], the IC50 fell in the range of 10 to 100 nM.

The compound `CC1(C)C[C@H]2N(c3cccc(N=S(C)(C)=O)n3)c3nc(Nc4cn5ccnc5cn4)ncc3[C@@]2(C)CO1` (single isomer, unassigned) [Example 382] had an IC50 of 10 to 100 nM.

In the case of `C[C@H]1COC(=O)N1c1cccc(N2c3nc(Nc4ccc(N5CCNCC5)cc4)ncc3[C@]3(C)COC(C)(C)C[C@H]23)n1` (single isomer, unassigned) [Example 261], the IC50 lay within 10 to 100 nM.

As for `Cc1cc(Nc2ncc3c(n2)N(c2cccc(N=S(C)(C)=O)n2)[C@H]2CC(C)(C)OC[C@@]32C)ccc1[C@@H]1COCCN1` (single isomer, unassigned) [Example 113], the IC50 fell in the range of 10 to 100 nM.

In turn, `CN[C@H](Cc1ccc(Nc2ncc3c(n2)N(c2cccc(N4C(=O)OC[C@@H]4C)n2)[C@H]2CC(C)(C)OC[C@@]32C)cc1)C(=O)O` (single isomer, unassigned) [Example 322] had an IC50 of 100 to 1000 nM.

The test is the same for the next values; noted with them: class symbols; 1 nM Wee1 enzyme, 15 uM ATP, 4 hours at 25° C.
For the compound `CN1CC[C@H](Oc2ccc(Nc3ncc4c(n3)N(c3cccc(C(C)(C)O)n3)[C@H]3CC(C)(C)OC[C@@]43C)cc2)C1` (single isomer, unassigned) [Example 422], the half-inhibitory concentration (IC50) is 10 to 100 nM.

`CC1(C)C[C@@H]2N(c3cccc(N4CCOC4=O)n3)c3nc(Nc4ccc([C@]5(C)CCNC5)cc4)ncc3[C@]2(C)CO1` [Example 665, 3-(6-((4bS,8aS)-46,7,7-trimethyl-2-((4-((S)-3-methylpyrrolidin-3-yl)phenyl)amino)-4b,7,8,8a-tetrahydropyrano[3′,4′:4,5]pyrrolo[2,3-d]pyrimidin-9(5H)-yl)pyridin-2-yl)oxazolidin-2-one] gave an IC50 of 10 to 100 nM.

Turning to `CN1CC2(C1)CN(c1ccc(Nc3ncc4c(n3)N(c3cccc(N5C(=O)CCC5(C)C)n3)[C@@H]3CC(C)(C)OC[C@]43C)cc1)C2` (single isomer, unassigned) [Example 786], the IC50 is less than 10 nM.

`CN1C[C@H]2C[C@@H]1CN2c1ccc(Nc2ncc3c(n2)N(c2cccc(N4CCOC4=O)n2)[C@H]2CC(C)(C)OC[C@@]32C)cc1F` [Example 669, 3-(6-((4bS,8aS)-2-((3-fluoro-4-((1R,4R)-5-methyl-2,5-diazabicyclo[2.2.1]heptan-2-yl)phenyl)amino)-4b,7,7-trimethyl-4b,7,8,8a-tetrahydropyrano[3′,4′:4,5]pyrrolo[2,3-d]pyrimidin-9(5H)-yl)pyridin-2-yl)oxazolidin-2-one] registered an IC50 of 10 to 100 nM.

The compound `CC1(C)C[C@H]2N(c3ccccn3)c3nc(Nc4ccc(N5CCN6CC[C@H]5C6)cc4)ncc3[C@@]2(C)CO1` [Example 809, (4bR,8aR)-N-(4-((5S)-1,4-diazabicyclo[3.2.1]octan-4-yl)phenyl)-4b,7,7-trimethyl-9-(pyridin-2-yl)-4b,5,7,8,8a,9-hexahydropyrano[3′,4′:4,5]pyrrolo[2,3-d]pyrimidin-2-amine] showed an IC50 of less than 10 nM.

`CN1C[C@@H]2C[C@H]1CN2c1ccc(Nc2ncc3c(n2)N(c2cccc(N4CCCC4=O)n2)[C@H]2CC(C)(C)OC[C@@]32C)cc1F` [Example 641, 1-(6-((4bS,8aS)-2-((3-fluoro-4-((1S,4S)-5-methyl-2,5-diazabicyclo[2.2.1]heptan-2-yl)phenyl)amino)-4b,7,7-trimethyl-4b,7,8,8a-tetrahydropyrano[3′,4′:4,5]pyrrolo[2,3-d]pyrimidin-9(5H)-yl)pyridin-2-yl)pyrrolidin-2-one] displayed an IC50 of 100 to 1000 nM.

`C[C@@H]1COC(=O)N1c1cccc(N2c3nc(Nc4ccc(N5CCN(C)CC5)cc4)ncc3[C@]3(C)COC(C)(C)C[C@H]23)n1` (single isomer, unassigned) [Example 588] registered an IC50 of 10 to 100 nM.

`CC1(C)C[C@@H]2N(c3cccc([C@H]4CCCN4)n3)c3nc(Nc4ccc(N5CCOCC5)cc4)ncc3[C@]2(C)CO1` (single isomer, unassigned) [Example 527]: the IC50 lay within 10 to 100 nM.

For the compound `CC1(C)C[C@@H]2N(c3cccc([C@@H]4CCCN4)n3)c3nc(Nc4ccc(N5CCOCC5)cc4)ncc3[C@]2(C)CO1` (single isomer, unassigned) [Example 525], the IC50 was in the range of 100 to 1000 nM.

For `CN1CCN(c2ccc(Nc3ncc4c(n3)N(c3cccc(N5CCCC5=O)n3)[C@H]3CC(C)(C)OC[C@@]43C)cc2)CC1` (single isomer, unassigned) [Example 586], the IC50 was 10 to 100 nM.

`CN1C[C@H]2C[C@@H]1CN2c1ccc(Nc2ncc3c(n2)N(c2cccc(N4C(=O)OCC4(C)C)n2)[C@@H]2CC(C)(C)OC[C@]32C)cc1` [Example 795, 4,4-dimethyl-3-(6-((4bR,8aR)-4b,7,7-trimethyl-2-((4-((1R,4R)-5-methyl-2,5-diazabicyclo[2.2.1]heptan-2-yl)phenyl)amino)-4b,7,8,8a-tetrahydropyrano[3′,4′:4,5]pyrrolo[2,3-d]pyrimidin-9(5H)-yl)pyridin-2-yl)oxazolidin-2-one] registered an IC50 of less than 10 nM.

The compound `CNCc1cccc(N2c3nc(Nc4cnn(C)c4)ncc3[C@]3(C)COC(C)(C)C[C@H]23)n1` (single isomer, unassigned) [Example 471] returned a half-maximal inhibitory concentration (IC50) of 100 to 1000 nM.

The compound `Cn1ccc(Nc2ncc3c(n2)N(c2cccc(N=S(C)(C)=O)n2)[C@@H]2CC(C)(C)OC[C@]32C)n1` (single isomer, unassigned) [Example 513] yielded an IC50 of less than 10 nM.

`CN1C[C@H]2C[C@@H]1CN2c1ccc(Nc2ncc3c(n2)N(c2cccc(N=S(C)(C)=O)c2)[C@H]2CC(C)(C)OC[C@@]32C)cc1` [Example 714, dimethyl((3-((4bS,8aS)-4b,7,7-trimethyl-2-((4-((1R,4R)-5-methyl-2,5-diazabicyclo[2.2.1]heptan-2-yl)phenyl)amino)-4b,7,8,8a-tetrahydropyrano[3′,4′:4,5]pyrrolo[2,3-d]pyrimidin-9(5H)-yl)phenyl)imino)-16-sulfanone] registered an IC50 of 10 to 100 nM.

For the compound `Cn1ncc(Nc2ncc3c(n2)N(c2cccc(N=S(C)(C)=O)n2)[C@@H]2CC(C)(C)OC[C@]32C)n1` (single isomer, unassigned) [Example 515], the IC50 is less than 10 nM.

`CN1CCN(c2cccc(N3c4nc(Nc5ccc(N6CCOCC6)cc5)ncc4[C@]4(C)COC(C)(C)C[C@H]34)n2)CC1` (single isomer, unassigned) [Example 536] yielded an IC50 of 10 to 100 nM.

Regarding `CN1C[C@H]2C[C@@H]1CN2c1ccc(Nc2ncc3c(n2)N(c2cccc(C4(O)CC4)n2)[C@H]2CC(C)(C)OC[C@@]32C)cc1` [Example 647, 1-(6-((4bS,8aS)-4b,7,7-trimethyl-2-((4-((1R,4R)-5-methyl-2,5-diazabicyclo[2.2.1]heptan-2-yl)phenyl)amino)-4b,7,8,8a-tetrahydropyrano[3′,4′:4,5]pyrrolo[2,3-d]pyrimidin-9(5H)-yl)pyridin-2-yl)cyclopropan-1-ol], the IC50 was in the range of 10 to 100 nM.

In turn, `CN1C[C@@H]2CN(c3ccc(Nc4ncc5c(n4)N(c4cccc(N6CCCC6=O)n4)[C@H]4CC(C)(C)OC[C@@]54C)cc3)C[C@@H]2C1` [Example 695, 1-(6-((4bS,8aS)-4b,7,7-trimethyl-2-((4-((3aR,6aS)-5-methylhexahydropyrrolo[3,4-c]pyrrol-2(1H)-yl)phenyl)amino)-4b,7,8,8a-tetrahydropyrano[3′,4′:4,5]pyrrolo[2,3-d]pyrimidin-9(5H)-yl)pyridin-2-yl)pyrrolidin-2-one] returned a half-maximal inhibitory concentration (IC50) of 10 to 100 nM.

The values above are taken from patent US20260166039A1 (SCHRÖDINGER, INC., priority 2022, published 2026).
